# Results published in patent US20250099412A1, “METHOD OF INHIBITING DEGRADING PROTEASE ACTIVITY IN AGING” (The Regents of the University of California, priority 2022, published 2025).
# What was measured:
# pancreatic trypsin = experiment: Pancreatic trypsin immunohistochemistry on rat tissue sections (young, old, old-treated); format: in vivo; conditions: old rats (100 weeks), compared with old and young (16 weeks) rats
# Source text: (§1) Male Wistar rats (Harlan Sprague Dawley Inc., Indianapolis, IN) at maturity (4 months, 300 to 350 gm) and old age (24 months, 375 to 450 gm) were included in the study. The animals were maintained on standard laboratory chow (8604 Teklad rodent diet; Harlan Laboratories, Indianapolis, IN) without restriction and water ad libitum and maintained in separated room without pathogen-free conditions. […] A subgroup of old animals was given a serine protease inhibitor (tranexamic acid, 14 days) in drinking water (137 mM, exchanged daily) which at a minimum fluid consumption of 40 ml/day amounts to a minimum dose of 0.39 gm/kg/day for 350 gm body weight (BW).
# A femoral venous catheter was placed after general anesthesia (pentobarbital sodium, 50 mg/kg [Abbott Laboratories, North Chicago, IL], intramuscularly after local anesthesia with 2% lidocaine HCl [Hospira, Inc, Lake Forrest, IL]). […]
# To determine on the tissue sections the immunolabel density and distribution of serine proteases, pancreatic trypsin MoAb (D-1): sc-137077 (Santa Cruz) primary antibody was used, followed by secondary antibodies (MP-7601 for anti-rabbit IgG; MP-7602 for anti-mouse IgG; ImmPRESS Excel staining kit peroxidase). […] No counterstain was applied to facilitate quantitative label intensity measurements and since cellular and vascular structures are readily identified. […] All procedures were carried out under standardized conditions to permit quantitative comparison of label densities.
# Small intestine: Full thickness tissue blocks of the wall of proximal jejunum (3 by 5 mm) were fixed from all sides in 10% formaldehyde. Serine proteases were detected with primary and secondary antibodies labeled with DAB (Peroxidase Substrate Kit, ab64238, ABCAM).
# Images of the immunolabel density were recorded at different magnifications, from relatively low power overviews of the tissue (10× objective, numerical aperture 0.25) to higher magnification of single cells (at 60× oil immersion objective, numerical aperture 1.4). […]
# amylase = experiment: Amylase staining of epithelial cells of the small intestine; format: in vivo, rat; conditions: old rats (100 weeks), oral treatment for two weeks; compared with old and young rats; FIG. 3B
# Source text: as §1
# collagen = experiment: Collagen fragment labeling with biotin conjugated collagen hybridizing peptides (B-CHP); format: in vivo, rat; conditions: old rats (100 weeks), two-week oral treatment, compared with old and young (16 weeks) rats
# Source text: as §1, with “(BW). […]” for “(BW).”
# Tissue sections were stained with B-CHP (stock solution, 150 mM; final applied solution 7.5. mM). […] The B-CHP label intensity on the sections was recorded by digital microscopy.
# (§2) Images of the immunolabel density were recorded at different magnifications, from relatively low power overviews of the tissue (10× objective, numerical aperture 0.25) to higher magnification of single cells (at 60× oil immersion objective, numerical aperture 1.4). The images were recorded under standard light conditions under fixed settings of the substage condenser with a digital camera (Spot Insight GIGABIT camera, Sterling Height), so that the camera serves as a quantitative light intensity meter. […]
# mucin = experiment: Mucin-containing mucus layer of small intestine stained with alcian blue; format: in vivo, rat; conditions: old rats (100 weeks), two-week oral treatment; compared with old and young rats; FIG. 3B
# Source text: as §1, with “(BW). […]” for “(BW).”
# as §2, with “meter. Images were analyzed on a laboratory computer to minimize operator error (NIH Image, 1.61, public domain software, spatial resolution of 640×480 pixel).” for “meter.”
smiles,measurement,setting,value
NC[C@H]1CC[C@H](C(=O)O)CC1 [tranexamic acid],pancreatic trypsin accumulation in cardiac muscle,"pancreatic trypsin; two-week oral treatment (137 mM in drinking water), FIG. 1A",reduces pancreatic trypsin accumulation
same,pancreatic trypsin accumulation in brain,"pancreatic trypsin; two-week oral treatment, FIG. 2A",reduces pancreatic trypsin accumulation
same,pancreatic trypsin accumulation in intestine,"pancreatic trypsin; two-week oral treatment, FIG. 3A",reduces pancreatic trypsin accumulation in old rats (100 weeks) to similar levels seen in young rats
same,increase in amylase in the small intestine of old rats,amylase,attenuated
same,collagen fragmentation in cardiac muscle,collagen; FIG. 1B,reduces collagen fragmentation in cardiac muscle in old-treated rats below levels seen in old rats to levels similar to those seen in young rats
same,collagen fragmentation in brain,collagen; FIG. 2B,reduces collagen fragmentation in rat brain in old-treated rats below levels seen in old rats to levels similar to those seen in young rats
same,mucin label density in villi of small intestine,mucin,partially restored
